Laboratory results: ChEMBL document CHEMBL1142804, “Design, synthesis, and evaluation of novelly substituted benzimidazole compounds as angiotensin II receptor antagonists” (Bioorg Med Chem Lett, 2005)

Legend:
Assay type in all cases: functional
[1] = Competitive antagonism of Angiotensin II receptor in endothelium removed isolated rat aortic ring; (n = 5); conditions: read-out: pA2 (converted)
[2] = Competitive antagonism of Angiotensin II receptor in endothelium removed isolated rat aortic ring
[3] = Noncompetitive antagonism of Angiotensin II receptor in endothelium removed isolated rat aortic ring
[4] = Noncompetitive antagonism of Angiotensin II receptor in endothelium removed isolated rat aortic ring; (n = 5); conditions: read-out: pA2 (converted)

Compound	Kb [1] [nM]	pA10 [2]	pA10 [3]	Kb [4] [nM]
CCCCc1nc2c(N)cccc2n1Cc1ccc(-c2ccccc2C(=O)O)cc1	15.8	6.9	–	–
CCCCc1nc2ccccc2n1Cc1ccc(-c2ccccc2C(=O)O)cc1	355	5.81	–	–
CCc1nc2c([N+](=O)[O-])cccc2n1Cc1ccc(-c2ccccc2C(=O)O)cc1	–	–	3.4	100
CCOCc1nc2c([N+](=O)[O-])cccc2n1Cc1ccc(-c2ccccc2C(=O)O)cc1	–	–	1.7	50.1
CCOc1nc2cccc(C(=O)O)c2n1Cc1ccc(-c2ccccc2-c2nnn[nH]2)cc1 [CANDESARTAN]	9.55	7.1	–	–
CCCCc1nc(Cl)c(CO)n1Cc1ccc(-c2ccccc2-c2nnn[nH]2)cc1 [LOSARTAN]	39.8	6.5	–	–
CCCc1nc2c([N+](=O)[O-])cccc2n1Cc1ccc(-c2ccccc2C(=O)O)cc1	–	–	2.9	79.4
CCCCc1nc2c([N+](=O)[O-])cccc2n1Cc1ccc(-c2ccccc2C(=O)O)cc1	–	–	1.8	3.16
